US20250215011A1, “T-TYPE CALCIUM CHANNEL MODULATORS COMPRISING A DIAZASPIROHEPTANE CORE AND METHODS OF USE THEREOF” (Praxis Precision Medicines, Inc., priority 2022, published 2025)
pIC50: −log10 of the molar value.

target: Human Cav3.1 (Homo sapiens (Human), UniProt O43497); assay: Cav3.1 automated patch clamp assay (SyncroPatch 384PE), HEK-293 natClytin/TASK1+Cav3.1 cell line; format: cell-based; details: Table 1, HEK-293 natClytin/TASK1+Cav3.1 cells
Experimental: Inhibition of the T-type voltage gated calcium channel (Cav3.1) was evaluated using a HEK-293 natClytin/TASK1+Cav3.1 cell line. Currents were recorded using the SyncroPatch 384PE automated, patch clamp system. Pulse generation and data collection were performed with PatchController384 V1.3.0 and DataController384 V1.2.1 (Nanion Technologies). Off-line analysis was performed using Excel and Graphpad Prism (V 8.4.2) with complete data files uploaded to Dotmatics. The access resistance and apparent membrane capacitance were estimated using built-in protocols. Current was recorded in whole cell configuration from a population of cells. The cells were lifted, triturated, and resuspended at 800,000 cells/ml. The cells were allowed to recover in the cell hotel prior to experimentation. Currents were recorded at room temperature. The external solution contained the following (in mM): NaCl 80, NMDG 60, KCl 4, MgCl2 1, CaCl2 6, glucose 5 and HEPES 10 (pH=7.4, Osmolarity ˜300 mOsm). The extracellular solution was used as the wash, reference and compound delivery solution. The internal solution contained the following (in mM): CsF 110, CsCl 10, NaCl 10, EGTA 10, HEPES 10 (pH=7.2, Osmolarity ˜295 mOsm). The compound plate was created at 2× concentrated in the extracellular solution. The compound was diluted to 1:2 when added to the recording well. The amount of […] in the extracellular solution was held constant at the level used for the highest tested concentration. For the voltage clamp experiments on Cav3.1, data were sampled at 10 KHz. After establishment of the seal and the passage in the whole cell configuration, the cells were held at −120 mV. Cav3.1 current was evoked using a 100 ms step to −20 mV (to measure resting state block), followed by a 1600 ms step to −65 mV and a second 100 ms step to −20 mV (to measure voltage dependent block). The voltage protocol was applied every 15 seconds in the absence and in the presence of the compounds under investigation. […] Current amplitude (pA) was measured in the peak 1 and 2. The average of last 3 sweeps of each liquid period (vehicle, compound under investigation, full block) was calculated. Nickel-sensitive current was used to calculate the % of inhibition in the presence of the compound under investigation.

Sequence of Human Cav3.1 (O43497 whole entry): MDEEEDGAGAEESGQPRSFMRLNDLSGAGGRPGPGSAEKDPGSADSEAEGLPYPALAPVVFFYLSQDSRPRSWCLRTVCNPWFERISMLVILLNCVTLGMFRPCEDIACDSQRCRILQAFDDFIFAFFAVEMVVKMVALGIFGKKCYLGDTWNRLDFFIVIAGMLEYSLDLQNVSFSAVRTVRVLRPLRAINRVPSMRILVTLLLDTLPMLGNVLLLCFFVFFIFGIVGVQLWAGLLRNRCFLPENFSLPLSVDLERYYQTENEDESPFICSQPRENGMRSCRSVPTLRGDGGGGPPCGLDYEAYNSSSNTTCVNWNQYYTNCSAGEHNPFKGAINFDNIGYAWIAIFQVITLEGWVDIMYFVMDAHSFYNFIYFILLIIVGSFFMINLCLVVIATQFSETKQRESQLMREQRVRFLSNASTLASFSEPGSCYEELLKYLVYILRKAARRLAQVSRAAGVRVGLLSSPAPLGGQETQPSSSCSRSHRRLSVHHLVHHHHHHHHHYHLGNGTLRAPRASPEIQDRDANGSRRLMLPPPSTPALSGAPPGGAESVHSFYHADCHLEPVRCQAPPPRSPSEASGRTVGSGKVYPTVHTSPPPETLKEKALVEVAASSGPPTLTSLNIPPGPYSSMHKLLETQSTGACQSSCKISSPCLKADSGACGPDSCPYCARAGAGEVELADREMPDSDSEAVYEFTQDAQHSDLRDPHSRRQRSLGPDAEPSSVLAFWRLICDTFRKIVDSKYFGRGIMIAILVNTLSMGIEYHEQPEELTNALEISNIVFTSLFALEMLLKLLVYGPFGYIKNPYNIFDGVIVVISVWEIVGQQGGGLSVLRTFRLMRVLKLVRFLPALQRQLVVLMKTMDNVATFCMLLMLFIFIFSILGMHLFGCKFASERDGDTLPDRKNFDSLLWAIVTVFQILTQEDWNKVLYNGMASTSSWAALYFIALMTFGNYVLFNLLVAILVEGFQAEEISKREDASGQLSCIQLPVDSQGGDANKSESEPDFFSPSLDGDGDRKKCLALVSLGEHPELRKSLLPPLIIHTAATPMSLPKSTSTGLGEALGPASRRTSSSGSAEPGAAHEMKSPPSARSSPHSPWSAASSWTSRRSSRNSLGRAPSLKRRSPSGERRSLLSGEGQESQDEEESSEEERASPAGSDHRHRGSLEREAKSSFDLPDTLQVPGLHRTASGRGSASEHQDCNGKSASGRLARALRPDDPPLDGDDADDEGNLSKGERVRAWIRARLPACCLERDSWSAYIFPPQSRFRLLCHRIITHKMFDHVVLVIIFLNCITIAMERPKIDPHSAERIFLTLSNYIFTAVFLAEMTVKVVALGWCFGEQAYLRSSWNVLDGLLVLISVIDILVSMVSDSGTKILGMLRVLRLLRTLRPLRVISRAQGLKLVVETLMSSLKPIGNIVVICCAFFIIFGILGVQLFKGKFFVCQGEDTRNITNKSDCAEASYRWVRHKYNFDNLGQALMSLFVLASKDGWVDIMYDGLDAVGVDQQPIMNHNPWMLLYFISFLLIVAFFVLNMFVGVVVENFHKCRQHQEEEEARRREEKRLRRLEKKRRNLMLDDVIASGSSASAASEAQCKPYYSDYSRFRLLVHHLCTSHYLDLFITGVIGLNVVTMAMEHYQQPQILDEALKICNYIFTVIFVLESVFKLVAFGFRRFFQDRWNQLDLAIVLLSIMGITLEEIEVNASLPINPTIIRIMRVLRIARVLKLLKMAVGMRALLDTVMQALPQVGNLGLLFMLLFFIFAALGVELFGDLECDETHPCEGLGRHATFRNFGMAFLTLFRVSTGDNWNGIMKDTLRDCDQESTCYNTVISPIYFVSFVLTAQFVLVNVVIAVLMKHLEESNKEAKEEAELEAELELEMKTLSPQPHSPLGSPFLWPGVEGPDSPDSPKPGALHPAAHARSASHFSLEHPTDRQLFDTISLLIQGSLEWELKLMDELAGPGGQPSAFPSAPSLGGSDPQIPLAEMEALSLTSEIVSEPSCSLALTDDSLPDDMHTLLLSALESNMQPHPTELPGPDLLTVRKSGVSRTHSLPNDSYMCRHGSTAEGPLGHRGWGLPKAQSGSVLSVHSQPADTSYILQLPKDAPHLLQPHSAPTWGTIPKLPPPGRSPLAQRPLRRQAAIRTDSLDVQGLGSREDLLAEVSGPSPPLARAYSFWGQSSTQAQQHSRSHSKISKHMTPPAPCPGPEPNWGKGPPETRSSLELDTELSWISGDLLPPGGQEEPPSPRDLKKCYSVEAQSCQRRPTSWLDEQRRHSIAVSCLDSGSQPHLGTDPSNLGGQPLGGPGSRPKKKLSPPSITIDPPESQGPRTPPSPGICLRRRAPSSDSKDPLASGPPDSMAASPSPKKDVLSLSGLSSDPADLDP

| pIC50 | Structure (SMILES) |
| --- | --- |
| 5.00 to 6.00 | CC(C)(C)NC(=O)CN1CC2(CN(CC(=O)Nc3cc(F)cc(C(F)F)c3)C2)C1 [Example 3] |
| 5.00 to 6.00 | CC(C)(C)NC(=O)CN1CC2(CN(CC(=O)Nc3ccc(F)c(Cl)c3)C2)C1 [Example 5] |
| 5.00 to 6.00 | CC(C)(C)NC(=O)CN1CC2(CN(CC(=O)Nc3cccc(Cl)c3)C2)C1 [Example 6] |
| ≤ 5.00 | Cc1cc(NC(=O)CN2CC3(C2)CN(CC(=O)NC(C)(C)C)C3)nn1-c1ccccc1 [Example 7] |
| ≤ 5.00 | CC(C)(C)NC(=O)CN1CC2(CN(CC(=O)Nc3cccc(Cl)c3F)C2)C1 [Example 8] |
| 5.00 to 6.00 | COc1cc(F)cc(NC(=O)CN2CC3(C2)CN(CC(=O)NC(C)(C)C)C3)c1 [Example 2] |
| 5.00 to 6.00 | Cc1cc(F)cc(NC(=O)CN2CC3(C2)CN(CC(=O)NC(C)(C)C)C3)c1 [Example 4] |

| Structure (SMILES) | pIC50 |
| --- | --- |
| CC(C)(C)NC(=O)CN1CC2(CN(CC(=O)Nc3cc(Cl)cc(Cl)c3)C2)C1 [Example 1, N-(tert-butyl)-2-(6-(2-((3,5-dichlorophenyl)amino)-2-oxoethyl)-2,6-diazaspiro[3.3]heptan-2-yl)acetamide] | > 6.00 |

same assay, conditions: Table 2, HEK-293 natClytin/TASK1+Cav3.1 cells

| pIC50 | Structure (SMILES) |
| --- | --- |
| > 6.00 | CC(C)(C)NC(=O)CN1CC2(CN(CC(=O)Nc3cc(F)cc(Cl)c3)C2)C1 [Example 11] |
| > 6.00 | CC(C)(C)CCN1CC2(C1)CN(Cc1nc3c(Cl)cc(F)cc3[nH]1)C2 [Example 33] |
| > 6.00 | CC(C)(C)NC(=O)CN1CC2(C1)CN(Cc1nc3c(Cl)cc(Cl)cc3[nH]1)C2 [Example 39] |
| 5.00 to 6.00 | Cc1nc(CN2CC3(CN(CC(=O)Nc4cc(F)cc(Cl)c4)C3)C2)co1 [Example 22] |
| > 6.00 | CC(C)(C)c1nc(CN2CC3(CN(CC(=O)Nc4cc(F)cc(Cl)c4)C3)C2)co1 [Example 13] |
| > 6.00 | Fc1cc(Cl)c2nc(CN3CC4(C3)CN(CC3CCC(F)(F)CC3)C4)[nH]c2c1 [Example 36] |
| > 6.00 | CC1(NC(=O)CN2CC3(CN(CC(=O)Nc4cc(F)cc(Cl)c4)C3)C2)CCC1 [Example 14] |
| > 6.00 | O=C(CN1CC2(CN(CCC3CCC(F)(F)CC3)C2)C1)Nc1cc(F)cc(Cl)c1 [Example 26] |
| 5.00 to 6.00 | O=C(CN1CC2(C1)CN(Cc1nc(-c3ccccc3)co1)C2)Nc1cc(F)cc(Cl)c1 [Example 28] |
| 5.00 to 6.00 | Cc1coc(CN2CC3(CN(CC(=O)Nc4cc(F)cc(Cl)c4)C3)C2)n1 [Example 30] |
| > 6.00 | CC(C)(C)NC(=O)CN1CC2(C1)CN(Cc1nc3cc(F)cc(Cl)c3[nH]1)C2 [Example 9, N-(tert-butyl)-2-(6-((7-chloro-5-fluoro-1H-benzo[d]imidazol-2-yl)methyl)-2,6-diazaspiro[3.3]heptan-2-yl)acetamide] |
| 5.00 to 6.00 | CC(C)(C)NC(=O)CN1CC2(C1)CN(Cc1nc3c(F)cc(OC(F)F)cc3[nH]1)C2 [Example 40] |
| > 6.00 | CC(C)(C)NC(=O)CN1CC2(C1)CN(C(=O)Nc1cc(F)cc(Cl)c1)C2 [Example 43] |
| 5.00 to 6.00 | CC(C)(C)c1ncc(CN2CC3(CN(CC(=O)Nc4cc(F)cc(Cl)c4)C3)C2)[nH]1 [Example 29] |
| 5.00 to 6.00 | O=C(CN1CC2(C1)CN(CC(=O)NC1CCCC1)C2)Nc1cc(F)cc(Cl)c1 [Example 16] |
| 5.00 to 6.00 | COc1cccc(CN2CC3(CN(CC(=O)Nc4cc(F)cc(Cl)c4)C3)C2)c1 [Example 24] |
| > 6.00 | CC(C)(C)CCN1CC2(C1)CN(CC(=O)Nc1cc(F)cc(Cl)c1)C2 [Example 21] |

| pIC50 | Structure (SMILES) |
| --- | --- |
| 5.00 to 6.00 | CC(C)(C)c1coc(CN2CC3(CN(CC(=O)Nc4cc(F)cc(Cl)c4)C3)C2)n1 [Example 19] |
| > 6.00 | Fc1cc(Cl)c2nc(CN3CC4(CN(CCC5CCCC5)C4)C3)[nH]c2c1 [Example 34] |
| > 6.00 | O=C(CN1CC2(CN(CCC3CCCC3)C2)C1)Nc1cc(F)cc(Cl)c1 [Example 20] |
| > 6.00 | O=C(CN1CC2(C1)CN(Cc1nc3ccccc3[nH]1)C2)Nc1cc(F)cc(Cl)c1 [Example 18] |
| > 6.00 | O=C(CN1CC2(C1)CN(Cc1cccc(Cl)c1)C2)Nc1cc(F)cc(Cl)c1 [Example 25] |
| > 6.00 | O=C(CN1CC2(C1)CN(Cc1cnc(-c3ccccc3)[nH]1)C2)Nc1cc(F)cc(Cl)c1 [Example 23] |
| > 6.00 | CC(C)(C)CCCN1CC2(C1)CN(Cc1nc3c(Cl)cc(F)cc3[nH]1)C2 [Example 35] |
| > 6.00 | O=C(CN1CC2(C1)CN(Cc1cccc(C(F)F)c1)C2)Nc1cc(F)cc(Cl)c1 [Example 27] |
| 5.00 to 6.00 | CC(C)(NC(=O)CN1CC2(CN(CC(=O)Nc3cc(F)cc(Cl)c3)C2)C1)C(F)(F)F [Example 17] |
| > 6.00 | CCC(C)(C)NC(=O)CN1CC2(C1)CN(Cc1nc3c(Cl)cc(F)cc3[nH]1)C2 [Example 32] |
| 5.00 to 6.00 | CC(C)(C)NC(=O)CN1CC2(CN(CC(=O)Nc3cc(F)cc(OC(F)F)c3)C2)C1 [Example 41] |
| 5.00 to 6.00 | Cc1cccc2[nH]c(CN3CC4(CN(CC(=O)NC(C)(C)C)C4)C3)nc12 [Example 37] |
| 5.00 to 6.00 | Cc1cc(F)cc2[nH]c(CN3CC4(CN(CC(=O)NC(C)(C)C)C4)C3)nc12 [Example 38] |
| > 6.00 | O=C(CN1CC2(C1)CN(Cc1coc(-c3ccccc3)n1)C2)Nc1cc(F)cc(Cl)c1 [Example 15] |
| 5.00 to 6.00 | CC(C)(C)NC(=O)CN1CC2(C1)CN(CC(=O)NC13CC4CC(CC(C4)C1)C3)C2 [Example 12] |
| > 6.00 | CC(C)(NC(=O)CN1CC2(C1)CN(Cc1nc3c(Cl)cc(F)cc3[nH]1)C2)C(F)(F)F [Example 31] |
| > 6.00 | CCC(C)(C)NC(=O)CN1CC2(CN(CC(=O)Nc3cc(F)cc(Cl)c3)C2)C1 [Example 10, N-(3-chloro-5-fluoro-phenyl)-2-[2-[2-(1,1-dimethylpropylamino)-2-oxo-ethyl]-2,6-diazaspiro[3.3]heptan-6-yl]acetamide] |
